According to patent US20160158368A1, “METHODS AND COMPOSITIONS FOR THE TREATMENT OF HISTIOCYTOSIS” (Therapure Biopharma Inc., priority 2014, published 2016):

Legend:
U937 cells = test: PrestoBlue cell viability assay, U937 cells; format: cell-based, human; settings: for growth inhibition: U937 cells
SU-DHL-1 cells = test: PrestoBlue cell viability assay, SU-DHL-1 cells; format: cell-based, human; settings: for growth inhibition: SU-DHL-1 cells

Molecule | growth inhibition (U937 cells) | growth inhibition (SU-DHL-1 cells) | IC50 (U937 cells; Homo sapiens, U-937, U937, 48 hours, cell viability, n=3, read-out: average half maximal inhibitory concentration (IC50)) | IC50 (SU-DHL-1 cells; Homo sapiens, SU-DHL-1, 48 hours, cell viability, n=3, read-out: average half maximal inhibitory concentration (IC50))
hemoglobin: human hemoglobin, a CD163 ligand, unconjugated control | not | not | – | –
Nc1nc(Cl)nc2c1ncn2C1CC(O)C(CO)O1 (stereo not drawn) [cladribine, 5-(6-amino-2-chloro-purin-9-yl)-2-(hydroxymethyl)oxolan-3-ol] | dose-dependent growth inhibition | dose-dependent growth inhibition | 0.042 µM | 0.204 µM
